# Experimental data published in PMC3072440 (Chemical research in toxicology, 2010).
# Where two headings read alike, the source gives them in different places.
# What was measured:
# [1] = target: T1, human P450 3A4 (Homo sapiens, UniProt P08684); assay: Effect on P450 3A4-catalyzed midazolam 1’-hydroxylation
# [2] = target: T1, human P450 3A4
# [3] = target: T1, human P450 3A4; remark: listed apart in the source
# [4] = target: human P450 2C9 (Homo sapiens, UniProt P11712); assay: Inhibition of P450 2C9-dependent flurbiprofen 4’-hydroxylation
# [5] = target: CYP3A4 (P450 3A4) (Homo sapiens, UniProt P08684); assay: Inhibition of P450 3A4-dependent midazolam 4-hydroxylation; settings: human, pH 7.4, probe midazolam (0.1 mM), 4-hydroxylation
# [6] = target: T1, human P450 3A4; assay: Spectral binding titration with purified P450 3A4; settings: decreases in α and β bands monitored; up to 100 µM
# [7] = target: T2, human P450 1A1 (Homo sapiens, UniProt P04798); assay: Inhibition of P450 1A1-dependent EROD activity; format: biochemical
# T2 sequence (P04798 1-512): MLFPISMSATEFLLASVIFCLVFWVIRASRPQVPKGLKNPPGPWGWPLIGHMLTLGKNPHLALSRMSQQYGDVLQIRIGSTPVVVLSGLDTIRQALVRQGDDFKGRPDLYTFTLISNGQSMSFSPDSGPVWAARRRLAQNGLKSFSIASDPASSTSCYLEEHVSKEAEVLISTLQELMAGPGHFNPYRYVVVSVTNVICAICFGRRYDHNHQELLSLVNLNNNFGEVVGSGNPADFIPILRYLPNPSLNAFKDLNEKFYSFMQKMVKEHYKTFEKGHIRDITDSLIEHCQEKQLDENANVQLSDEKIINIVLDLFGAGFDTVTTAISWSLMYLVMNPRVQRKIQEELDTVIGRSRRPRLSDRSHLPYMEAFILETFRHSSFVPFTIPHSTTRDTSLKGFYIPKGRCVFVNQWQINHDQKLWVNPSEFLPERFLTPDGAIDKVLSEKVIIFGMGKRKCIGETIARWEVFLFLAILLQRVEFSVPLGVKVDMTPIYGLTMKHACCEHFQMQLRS
# T1 sequence (P08684 whole entry): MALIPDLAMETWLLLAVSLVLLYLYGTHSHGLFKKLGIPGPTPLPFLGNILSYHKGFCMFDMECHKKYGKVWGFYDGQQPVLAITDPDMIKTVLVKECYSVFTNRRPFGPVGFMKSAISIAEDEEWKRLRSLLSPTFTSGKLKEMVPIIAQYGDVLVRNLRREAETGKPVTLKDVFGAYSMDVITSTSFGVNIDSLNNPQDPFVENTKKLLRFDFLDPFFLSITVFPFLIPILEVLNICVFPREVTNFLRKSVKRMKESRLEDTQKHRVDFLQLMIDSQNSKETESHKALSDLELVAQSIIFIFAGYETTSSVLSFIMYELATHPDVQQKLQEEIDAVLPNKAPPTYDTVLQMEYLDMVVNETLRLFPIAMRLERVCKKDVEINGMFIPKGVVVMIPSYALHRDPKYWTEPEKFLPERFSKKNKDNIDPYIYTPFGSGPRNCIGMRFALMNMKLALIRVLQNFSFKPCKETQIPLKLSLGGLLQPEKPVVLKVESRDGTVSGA
# Sequence of human P450 2C9 (P11712 whole entry): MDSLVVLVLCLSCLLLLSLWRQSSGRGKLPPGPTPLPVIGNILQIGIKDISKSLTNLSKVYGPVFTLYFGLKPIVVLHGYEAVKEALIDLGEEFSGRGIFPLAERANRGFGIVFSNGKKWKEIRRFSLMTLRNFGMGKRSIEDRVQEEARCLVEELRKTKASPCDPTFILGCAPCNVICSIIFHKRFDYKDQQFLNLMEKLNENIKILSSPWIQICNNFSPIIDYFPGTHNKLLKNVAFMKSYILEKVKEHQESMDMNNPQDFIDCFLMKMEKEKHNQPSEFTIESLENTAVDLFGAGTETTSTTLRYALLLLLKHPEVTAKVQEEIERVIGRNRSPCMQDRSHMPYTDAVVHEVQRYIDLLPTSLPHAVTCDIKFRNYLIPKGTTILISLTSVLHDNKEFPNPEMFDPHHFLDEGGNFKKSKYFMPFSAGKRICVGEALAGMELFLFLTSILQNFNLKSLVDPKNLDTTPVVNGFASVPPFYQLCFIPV
# Sequence of CYP3A4 (P450 3A4) (P08684 whole entry): as the sequence (P08684 whole entry) above
"effect on formation of 1’-hydroxymidazolam by P450 3A4, in words [3]","inhibition of P450 2C9 flurbiprofen 4’-hydroxylation, in words [4]",IC50 [5] [µM],"spectral change / Type I binding spectra with P450 3A4, in words [6]",IC50 [7] [µM],SMILES,"effect on formation of 1’-hydroxymidazolam by P450 3A4, in words [1]","inhibition of P450 3A4 midazolam 4-hydroxylation, in words [2]"
,,,,,O=C1CC(c2ccccc2)Oc2ccccc21 (centres unmarked) [flavanone],enhanced the formation of 1’-hydroxymidazolam,inhibited the formation of 4-hydroxymidazolam
slightly activated,,,,,"O=c1cc(-c2ccc(O)cc2)oc2cc(O)cc(O)c12 [4’57THF, 4’5,7-trihydroxyflavone]",,significantly inhibited
,strong inhibitors,16,induced spectral changes,5.8,"COc1cccc(-c2cc(=O)c3c(O)cc(O)cc3o2)c1 [3’M57DHF, 3’-methoxy-5,7-dihydroxyflavone]",,
